What all share (format): functional
What all share (conditions): route intraperitoneal

Test [1] concerns Mus musculus. Nature of the test: Antidepressant activity in Swiss mouse assessed as immobility time at 30 mg/kg, ip thrice a day by 5-mins swim test.
Test [2] deals with Mus musculus. Nature of the test: Antidepressant activity in Swiss mouse assessed as immobility time at 5 mg/kg, ip thrice a day by 5-mins swim test.
Test [3] relates to Mus musculus. Nature of the test: Antidepressant activity in Swiss mouse assessed as immobility time at 1 mg/kg, ip thrice a day by 5-mins swim test.
Test [4] has as its system Mus musculus. Nature of the test: Effect on motor co-ordination in Swiss mouse assessed as time on rotating bar at 30 mg/kg, ip after 10 days by Rota-rod test.
The subject of test [5] is Mus musculus. Nature of the test: Antidepressant activity in Swiss mouse assessed as immobility time at 30 mg/kg/day, ip after 10 days by 5-mins swim test.
Test [6] has as its system Mus musculus. Nature of the test: Antidepressant activity in Swiss mouse assessed as immobility time at 50 mg/kg, ip thrice a day by 5-mins swim test.
The test system of test [7] is Mus musculus. Nature of the test: Effect on motor co-ordination in Swiss mouse assessed as number of falls at 30 mg/kg, ip after 10 days by Rota-rod test. For orientation: In the rotarod test animals must keep their balance on a rotating rod.
The subject of test [8] is Mus musculus. Nature of the test: Antidepressant activity in Swiss mouse assessed as reduction in immobility time at 30 mg/kg/day, ip after 10 days by 5-mins swim test. Set-up: scale not given: the % may be the effect or the level left.
The test system of test [9] is Mus musculus. Nature of the test: Antidepressant activity in Swiss mouse assessed as immobility time at 15 mg/kg, ip thrice a day by 5-mins swim test.
For test [10], the system named is Mus musculus. Nature of the test: Effect on motor co-ordination in Swiss mouse assessed as time on rotating bar at 15 mg/kg, ip after 10 days by Rota-rod test.
The test system of test [11] is Mus musculus. Nature of the test: Effect on motor co-ordination in Swiss mouse assessed as number of falls at 15 mg/kg, ip after 10 days by Rota-rod test.
The test system of test [12] is Mus musculus. Nature of the test: Effect on motor co-ordination in Swiss mouse assessed as number of falls at 50 mg/kg, ip after 10 days by Rota-rod test.
Test [13] deals with Mus musculus. Nature of the test: Antidepressant activity in Swiss mouse assessed as immobility time at 50 mg/kg/day, ip after 10 days by 5-mins swim test.
For test [14], the system named is Mus musculus. Nature of the test: Antidepressant activity in Swiss mouse assessed as immobility time at 100 mg/kg, ip thrice a day by 5-mins swim test.
For test [15], the system named is Mus musculus. Nature of the test: Effect on motor co-ordination in Swiss mouse assessed as time on rotating bar at 50 mg/kg, ip after 10 days by Rota-rod test.
In test [16] the test system is Mus musculus. Nature of the test: Antidepressant activity in Swiss mouse assessed as reduction in immobility time at 50 mg/kg/day, ip after 10 days by 5-mins swim test. Set-up: scale not given: the % may be the effect or the level left.

Molecules are shown by their SMILES.

In the case of `c1ccc2c(c1)CCc1cccc3c1C2=NCCN3`, the Time in the test on Mus musculus [1] was 169.92 s; with Mus musculus [2] it was 197 s; in the test on Mus musculus [3] it was 215 s; with Mus musculus [4] it was 58.6 s; with Mus musculus [5], 186.4 s; in the test on Mus musculus [6], 199.25 s. The Time in the test with Mus musculus [9] is on record as 186.57 s. Also, the values for the Activity in the test with Mus musculus [7] and in the test with Mus musculus [8] were 0.4 and 15%, respectively.
As for `CN(C)CCCN1c2ccccc2CCc2ccccc21` [IMIPRAMINE], the results for the Time in the test with Mus musculus [10] and in the test with Mus musculus [9] were 58.11 s and 137.33 s, respectively. In addition, the Activity in the test with Mus musculus [11] amounted to 0.83.
In the case of `CN(C)CCCNc1cccc2c1C(=O)c1ccccc1CC2`, the Activity in the test with Mus musculus [12] is recorded as 0.5; in the test on Mus musculus [16], 13%. Besides, the Time with Mus musculus [1] is on record as 169.31 s; with Mus musculus [2] it was 220.22 s; in the test with Mus musculus [13], 190.33 s; with Mus musculus [14] it was 206.38 s; in the test with Mus musculus [6], 132 s; in the test with Mus musculus [15], 59.5 s. The Time in the test with Mus musculus [9] amounted to 187.1 s.

These data come from ChEMBL document CHEMBL1146357, “Antidepressant-like profile of action of two 4-amine derivatives of 10,11-dihydro-5H-dibenzo [a,d] cycloheptane in mice evaluated in the forced swimming test” (2007).
